This is an account of results in BindingDB's records for doi:10.7270/Q2DF6PMF (Nmmlsc, 2007).

As a reminder, the IC50 is the point on the concentration scale where inhibition reaches its midpoint. High values mean weaker potency, low ones greater potency. For orientation: Ki means the dissociation constant of the complex between target and ligand, obtained from inhibition or displacement. Lower therefore signals tighter binding.

Some results are limits rather than exact numbers.

The first assay deals with T1, N-formyl peptide receptor 2 (Homo sapiens, UniProt P25090).
T1 sequence (P25090 whole entry): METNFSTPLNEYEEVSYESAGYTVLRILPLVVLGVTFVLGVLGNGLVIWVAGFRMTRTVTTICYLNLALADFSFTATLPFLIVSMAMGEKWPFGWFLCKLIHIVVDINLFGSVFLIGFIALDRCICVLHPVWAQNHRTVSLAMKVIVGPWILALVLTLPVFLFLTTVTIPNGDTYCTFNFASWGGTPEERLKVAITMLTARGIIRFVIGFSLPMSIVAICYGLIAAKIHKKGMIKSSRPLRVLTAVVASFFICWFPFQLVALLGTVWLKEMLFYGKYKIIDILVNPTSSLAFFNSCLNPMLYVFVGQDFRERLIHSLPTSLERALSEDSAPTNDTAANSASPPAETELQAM
Kind of assay: concentration-dependent FPRL1 ligand displacement – cell-based, FPR counter-screen, fluorescent ligand, dose response (AID 520).
Conditions: not given
Regarding `O=C(O)C1CC=CCC1C(=O)N1CCN(c2nc(-c3ccccc3)c3ccccc3n2)CC1` (stereo unspecified) [6-[4-(4-phenylquinazolin-2-yl)piperazin-1-yl]carbonylcyclohex-3-ene-1-carboxylic acid], the IC50 was greater than 66.7 µM. `C=CCOc1ccc(C2C(C(=O)c3ccco3)C(=O)C(=O)N2Cc2cccnc2)cc1` (stereo unspecified) [3-(furan-2-carbonyl)-4-hydroxy-2-(4-prop-2-enoxyphenyl)-1-(pyridin-3-ylmethyl)-2H-pyrrol-5-one] gave an IC50 greater than 66.7 µM and a Ki greater than 40.3 µM. The compound `Clc1ccc(Cc2nn3c(-c4ccncc4)nnc3s2)cc1` [6-(4-chlorobenzyl)-3-(4-pyridyl)-[1,2,4]triazolo[3,4-b][1,3,4]thiadiazole] returned an IC50 greater than 66.7 µM.

The compound `COC(=O)c1[nH]c(C)c(C(=O)C2C(=O)C(=O)N(CCN3CCOCC3)C2c2cccs2)c1C` (stereo unspecified) displayed an IC50 greater than 66.7 µM and a Ki greater than 40.3 µM. Regarding `C[N+]1(C)[C@@H]2CC(OC(=O)[C@H](CO)c3ccccc3)C[C@H]1[C@@H]1O[C@@H]12` (stereo partly specified) [SCOPOLAMINE METHYL NITRATE], the 50% inhibitory concentration (IC50) was greater than 66.7 µM.

Compound `COC(=O)[C@H](C(C)C)n1c(C)c(C(C)=O)c(C(C)=O)c1C` [(2S)-2-(3,4-diacetyl-2,5-dimethyl-1-pyrrolyl)-3-methylbutanoic acid methyl ester] registered an IC50 greater than 66.7 µM. Take `CCOc1ccc(C2C(C(=O)c3cccs3)C(=O)C(=O)N2CCCn2ccnc2)cc1` (stereo unspecified) [2-(4-ethoxyphenyl)-1-(3-imidazol-1-ylpropyl)-4-oxidanyl-3-thiophen-2-ylcarbonyl-2H-pyrrol-5-one]: the IC50 is greater than 66.7 µM and the Ki is greater than 40.3 µM.

Consider `Cc1ccc(C(=O)C2C(=O)C(=O)N(CCCn3ccnc3)C2c2ccc(OC(C)C)cc2)o1` (stereo unspecified) [1-(3-imidazol-1-ylpropyl)-3-(5-methylfuran-2-yl)carbonyl-4-oxidanyl-2-(4-propan-2-yloxyphenyl)-2H-pyrrol-5-one], for which the half-inhibitory concentration (IC50) is greater than 66.7 µM and the Ki was greater than 40.3 µM. The like results for `Cc1ccc(C(=O)C2C(=O)C(=O)N(CCN3CCOCC3)C2c2cccnc2)cc1` (stereo unspecified) [(4Z)-4-[(4-methylphenyl)-oxidanyl-methylidene]-1-(2-morpholin-4-ylethyl)-5-pyridin-3-yl-pyrrolidine-2,3-dione] were, in that order, greater than 66.7 µM and greater than 40.3 µM.

Turning to `COCCCN1C(=O)C(=O)C(C(=O)c2ccco2)C1c1ccc(Br)cc1` (stereo unspecified) [2-(4-bromophenyl)-3-(furan-2-carbonyl)-4-hydroxy-1-(3-methoxypropyl)-2H-pyrrol-5-one], the IC50 is greater than 66.7 µM and the Ki is greater than 40.3 µM. In turn, `CC1(C)S[C@@H]2[C@H](NC(=O)Cc3ccccc3)C(=O)N2[C@H]1C(=O)O` [MLS000069426] gave a 50% inhibitory concentration (IC50) greater than 66.7 µM.

In turn, `O=C(Cn1cnc2c(cnn2-c2ccc(F)cc2)c1=O)OCc1ccccc1` [(phenylmethyl) 2-[1-(4-fluorophenyl)-4-oxidanylidene-pyrazolo[3,4-d]pyrimidin-5-yl]ethanoate] displayed an IC50 greater than 66.7 µM. Same read-out and setting: under `Cc1cc(SCC(N)=O)nc(SCC(=O)c2ccccc2)n1` [2-(6-methyl-2-phenacylsulfanylpyrimidin-4-yl)sulfanylacetamide] stands greater than 66.7 µM. Consider `COc1ccc(C(=O)C2C(=O)C(=O)N(CCN3CCOCC3)C2c2ccc(C)cc2)cc1` (stereo unspecified) [(4Z)-4-[(4-methoxyphenyl)-oxidanyl-methylidene]-5-(4-methylphenyl)-1-(2-morpholin-4-ylethyl)pyrrolidine-2,3-dione], for which the IC50 is greater than 66.7 µM and the inhibitory constant (Ki) was greater than 40.3 µM. For `O=C1C(=O)N(c2ncccn2)C(c2cccc(Cl)c2)C1C(=O)c1ccco1` (stereo unspecified) [2-(3-chlorophenyl)-3-(furan-2-carbonyl)-4-hydroxy-1-pyrimidin-2-yl-2H-pyrrol-5-one] the same measures were greater than 66.7 µM and greater than 40.3 µM. The compound `CCOC(=O)c1cc(NC(=O)C2C3CCC(O3)C2C(=O)O)cc(C(=O)OCC)c1` (stereo unspecified) [MLS000521500] returned an IC50 greater than 66.7 µM. For the compound `CCOc1cc(C2C(C(=O)c3ccc(C)o3)C(=O)C(=O)N2CCc2ccccc2)ccc1O` (stereo unspecified) [2-(3-ethoxy-4-hydroxyphenyl)-4-hydroxy-3-(5-methylfuran-2-carbonyl)-1-(2-phenylethyl)-2H-pyrrol-5-one], the half-inhibitory concentration (IC50) is greater than 66.7 µM and the Ki is greater than 40.3 µM.

As for `CCOC(=O)Cc1cc(=O)n2[nH]c(C)c(-c3ccccc3)c2n1`, the IC50 was greater than 66.7 µM. The same measure, in the same setting: as for `CC(C)(C)CC(=O)Nc1ccc(Nc2ccccc2)cc1` [3,3-dimethyl-N-(4-phenylazanylphenyl)butanamide], the figure is greater than 66.7 µM. On the same count and under the same terms, as for `Cc1nnc(SCc2cnc(-c3ccccc3)o2)nc1O` [MLS000061907], the figure is greater than 66.7 µM. The same measure, in the same setting: under `COc1ccccc1-n1c(CNC(=O)c2ccco2)nnc1SCC(=O)Nc1ccc(F)cc1` [SMR000021507] stands greater than 66.7 µM. As to `O=C1C(=O)N(c2ncccn2)C(c2ccc(Cl)cc2)C1C(=O)c1ccco1` (stereo unspecified) [2-(4-chlorophenyl)-3-(furan-2-carbonyl)-4-hydroxy-1-pyrimidin-2-yl-2H-pyrrol-5-one], the IC50 is greater than 66.7 µM and the Ki was greater than 40.3 µM.

For `COc1ccc(-c2cc(C(F)(F)F)nc(N3CCCCC3)n2)cc1OC` [4-(3,4-dimethoxyphenyl)-2-(1-piperidinyl)-6-(trifluoromethyl)pyrimidine], the IC50 is greater than 66.7 µM. The compound `O=C1C(=O)N(Cc2ccco2)C(c2ccccc2)C1C(=O)c1cccs1` (stereo unspecified) [1-(2-furanylmethyl)-4-hydroxy-3-[oxo(thiophen-2-yl)methyl]-2-phenyl-2H-pyrrol-5-one] gave an IC50 greater than 66.7 µM and a Ki greater than 40.3 µM. For `COC(=O)c1[nH]c(C)c(C(=O)C2C(=O)C(=O)N(CCCN3CCOCC3)C2c2ccccn2)c1C` (stereo unspecified) [methyl 4-{[4-hydroxy-1-[3-(4-morpholinyl)propyl]-5-oxo-2-(2-pyridinyl)-2,5-dihydro-1H-pyrrol-3-yl]carbonyl}-3,5-dimethyl-1H-pyrrole-2-carboxylate] the same measures were greater than 66.7 µM and greater than 40.3 µM. Compound `C=CCn1c(NC(=O)c2ccccc2)c(C#N)c2nc3ccccc3nc21` [MLS000057035] displayed an IC50 greater than 66.7 µM. Compound `COc1ccc(OC)c(C2C(C(=O)c3cc4ccccc4o3)C(=O)C(=O)N2c2cc(C)on2)c1` (stereo unspecified) [3-(1-benzofuran-2-carbonyl)-2-(2,5-dimethoxyphenyl)-4-hydroxy-1-(5-methyl-1,2-oxazol-3-yl)-2H-pyrrol-5-one] gave a half-maximal inhibitory concentration (IC50) greater than 66.7 µM and a Ki greater than 40.3 µM.

`Cc1nc2c(-c3ccc(F)cc3)c(C)nn2c(C)c1CCC(=O)NC(C)CCc1ccco1` (stereo unspecified) [3-[3-(4-fluorophenyl)-2,5,7-trimethyl-6-pyrazolo[1,5-a]pyrimidinyl]-N-[4-(2-furanyl)butan-2-yl]propanamide] had an IC50 greater than 66.7 µM. On the same count and under the same terms, under `COc1ccc(-c2cn3cccnc3n2)cc1NC(=O)C1CC1` [MLS000045944] stands 7.6 µM. The compound `COc1cc(C2C(C(=O)c3ccc4c(c3)CC(C)O4)C(=O)C(=O)N2CCCn2ccnc2)ccc1O` (stereo unspecified) [(4E)-1-(3-imidazol-1-ylpropyl)-5-(3-methoxy-4-oxidanyl-phenyl)-4-[(2-methyl-2,3-dihydro-1-benzofuran-5-yl)-oxidanyl-methylidene]pyrrolidine-2,3-dione] displayed an IC50 greater than 66.7 µM and a Ki greater than 40.3 µM. Compound `COCCCN1C(=O)C(=O)C(C(=O)c2ccco2)C1c1cccc(Br)c1` (stereo unspecified) [2-(3-bromophenyl)-3-(furan-2-carbonyl)-4-hydroxy-1-(3-methoxypropyl)-2H-pyrrol-5-one] registered an IC50 greater than 66.7 µM and a Ki greater than 40.3 µM.

For `O=c1c(CC[S+]([O-])c2ccccc2)c(O)n(-c2ccccc2)n1-c1ccccc1` (stereo unspecified) [1,2-Diphenyl-3,5-dioxo-4-(2-phenylsulfinylethyl)pyrazolidine], the concentration for half-maximal inhibition (IC50) is greater than 66.7 µM and the Ki is greater than 40.3 µM. The like results for `CCOc1cccc(C(=O)C2C(=O)C(=O)N(Cc3ccco3)C2c2ccncc2)c1` (stereo unspecified) [(4Z)-1-(2-furfuryl)-4-[hydroxy(m-phenetyl)methylene]-5-(4-pyridyl)pyrrolidine-2,3-quinone] were, in that order, greater than 66.7 µM and greater than 40.3 µM. The like results for `CCCOc1ccc(C2C(C(=O)c3ccc(C)o3)C(=O)C(=O)N2CCCn2ccnc2)cc1` (stereo unspecified) [1-(3-imidazol-1-ylpropyl)-3-(5-methylfuran-2-yl)carbonyl-4-oxidanyl-2-(4-propoxyphenyl)-2H-pyrrol-5-one] were, in that order, greater than 66.7 µM and greater than 40.3 µM. For the compound `CCOC(=O)c1oc2cc(O)ccc2c(=O)c1-c1ccccc1OC`, the IC50 was greater than 66.7 µM.

On to `COCCCN1C(=O)C(=O)C(C(=O)c2ccc3c(c2)CC(C)O3)C1c1cccnc1` (stereo unspecified) [(4E)-1-(3-methoxypropyl)-4-[(2-methyl-2,3-dihydro-1-benzofuran-5-yl)-oxidanyl-methylidene]-5-pyridin-3-yl-pyrrolidine-2,3-dione], for which the IC50 is greater than 66.7 µM and the Ki was greater than 40.3 µM. Take `Cc1oc2cc(O)cc(O)c2c(=O)c1-c1ccc2c(c1)OCCCO2` [3-(3,4-dihydro-2H-1,5-benzodioxepin-7-yl)-2-methyl-5,7-bis(oxidanyl)chromen-4-one]: the IC50 is greater than 66.7 µM. On to `COc1ccc(-n2c(Cc3cccn3C)nnc2SCC(=O)Nc2ccc(Cl)cc2)cc1` [MLS000118695], for which the IC50 was greater than 66.7 µM. Take `C=CCOc1cccc(C2C(C(=O)c3ccco3)C(=O)C(=O)N2CCN2CCOCC2)c1` (stereo unspecified) [3-(furan-2-carbonyl)-4-hydroxy-1-(2-morpholin-4-ylethyl)-2-(3-prop-2-enoxyphenyl)-2H-pyrrol-5-one]: the IC50 was greater than 66.7 µM and the Ki was greater than 40.3 µM. `O=C(NC1CCCCC1)c1sc(=S)n2c1[nH]c(=O)c1ccccc12` [SMR000030293] came in with an IC50 greater than 66.7 µM.

The assay is the same for the next values; noted with them: inactive by the depositor's call.
Regarding `CNc1nn(-c2cccc(Cl)c2)nc1N` [2-(3-chlorophenyl)-4-N-methyltriazole-4,5-diamine], the IC50 was found to be 18.2 µM. This lies in the double-digit micromolar range.
